{
  "source": "patent US10835519B2",
  "about": "“Targeting metabolic adaptive responses to chemotherapy” (University of Cincinnati, priority 2012, dated 2020)",
  "key": {"[1]": {"tested_on": "BCR-ABL+ FL5.12 cells", "test": "Viability by propidium iodide exclusion (flow cytometer)", "format": "cell-based", "conditions": "for viability (cell death): 22 hours, FIG. 12", "experimental": "BCR-ABL^+ FL5.12 cells were cultured in cytokine-free medium containing either 0.2 mM glucose (“low glucose”; -Glucose) or 10 mM glucose (“high glucose”, +Glucose) for 48 hours. The mean viability and standard deviation were determined by propidium iodide exclusion in a FACSAria flow cytometer (BD). Cells were washed three times in PBS and resuspended at a concentration of 2×10^5 per mL in media supplemented with 2 μg/mL of propidium iodide (Molecular Probes) prior to analysis. For the viability analysis of BCL-ABL^+ primary bone marrow cells, viability was measured after withdrawal from cytokines for five (5) days in high glucose or low glucose media. Methods used for culturing cells and measuring viability are described above and below.\nFatty acid oxidation inhibition via ST247, an inverse agonist that inhibits PPARδ activity, was examined. BCR-ABL-expressing FL5.12 cells were pretreated with vehicle control or 20 nM rapamycin overnight. Cells were cultured for 22 hours in complete medium lacking IL-3 and glucose, supplemented with the indicated treatments (vehicle, 0.5 μM ST247, 1 μM ST247, or 5 μM ST247). Viability was measured in three technical replicates by propidium iodide (PI) exclusion using a flow cytometer. […] The effect was dose dependent, with lesser concentrations resulting in little effect in rapamycin-treated cells.\nIn order to investigate the metabolic switch as glycolysis declines, BCR-ABL-expressing FL5.12 cells were pretreated with vehicle control or 20 nM rapamycin overnight. Cells were then cultured in complete medium lacking IL-3 with 100 μM glucose (a limiting concentration) for 46 hours, supplemented with either vehicle control or 5 μM ST247. Viability was measured in three technical replicates by PI exclusion in a flow cytometer.\nBCR-ABL-expressing FL5.12 cells were pretreated with vehicle control or 20 nM rapamycin overnight. Cells were then cultured in complete medium lacking IL-3 with 50 μM glucose for 48 hours, supplemented with the indicated treatments (vehicle, 1 μM GW6471, 10 μM GW7647, or 5 μM ST247). Viability was measured in three technical replicates by PI exclusion in a flow cytometer."}, "[2]": {"tested_on": "S6K1", "test": "Ribosomal protein S6 phosphorylation as readout of S6K1 activity", "format": "cell-based", "conditions": "imatinib 1.5 μM", "experimental": "In particular, vector control and BCR-ABL^+ cells were cultured for three (3) hours in the absence of growth factor, then restimulated for thirty (30) minutes for analysis of S6K1 phosphorylation at T389 and the phosphorylation of ribosomal protein S6 at serines 235/236.\nSmall ribosomal protein S6 (pS^6) phosphorylation was measured."}, "[3]": {"tested_on": "Akt", "test": "Akt phosphorylation immunoblot in BCR-ABL+ FL5.12 cells", "format": "cell-based, murine", "conditions": "rebound after S6K1 knockdown; FIG. 5A", "experimental": "Although Akt activation has been previously associated with glucose-dependent survival (see FIG. 4A), rebound activation of Akt was tested for association with increased survival in BCR-ABL^+ cells cultured under low glucose conditions. […] Inactivation of mTORC1 and S6K1 can trigger increases in the activity of Akt and other upstream kinases, due to knockdown or loss of feedback regulation.\nRapamycin treatment can induce rebound Akt activation in short-term cultures, but long term treatment can suppress Akt activation by the upstream kinase mTORC2. See, e.g., Sarbassov, et al., (2006) Mol Cell 22:159-68."}, "[4]": {"tested_on": "BCR-ABL+ FL5.12 cells", "test": "Fatty acid oxidation, 3H release from 3H-palmitate", "format": "cell-based, murine", "conditions": "etomoxir, upon S6K1 inactivation; FIG. 7A", "experimental": "(§1) The rate of ^3H release from ^3H-palmitate was used to measure FAO. The ^3H-palmitate was adopted from Djouadi, et al., (2003) Mol Genet Metab 78:112-8. Between approximately 0.5×10^6 and approximately 1.0×10^6 cells were washed with PBS, then cultured with approximately 400 μL of (9,10-^3H) palmitate:albumin for approximately 4 hours at approximately 37 degrees C. After incubation, approximately 10% TCA was added to each tube and centrifuged at approximately 3300 rpm for approximately 10 min at approximately 4 degrees C. before being mixed with 6N NaOH and applied to ion-exchange columns. Each column was washed with approximately 1 mL of water and the eluates were counted using a scintillation counter."}, "[5]": {"tested_on": "BCR-ABL+ K562 cells", "test": "Fatty acid oxidation, 3H release from 3H-palmitate", "format": "cell-based, human", "conditions": "etomoxir and/or rapamycin; FIG. 7B", "experimental": "as §1"}, "[6]": {"tested_on": "BCR-ABL+ KBM7 cells", "test": "Fatty acid oxidation, 3H release from 3H-palmitate", "format": "cell-based, human", "conditions": "etomoxir and/or rapamycin; FIG. 7C", "experimental": "as §1"}, "[7]": {"tested_on": "BCR-ABL+ K562 cells", "test": "Viability by propidium iodide exclusion", "format": "cell-based, human", "conditions": "full glucose; FIG. 10; not as strong as S6K1 knockdown with etomoxir"}},
  "note": "Entries after “also recorded” stand apart in the source; their conditions may differ.",
  "data": [
    {"molecule": "CCCCCCNc1ccc(NS(=O)(=O)c2ccsc2C(=O)OC)c(OC)c1", "note": "[ST247]", "values": [
      {"measurement": "viability (cell death)", "setting": "[1]; 5 μM ST247, 20 nM rapamycin pretreated overnight, no IL-3, no glucose", "result": "triggered substantial cell death"},
      {"measurement": "viability (restoring apoptosis)", "setting": "[1]; 5 μM ST247, 20 nM rapamycin pretreated, 50 μM glucose, 48 hours, FIG. 14", "result": "restoring apoptosis"},
      {"measurement": "viability (survival advantage)", "setting": "[1]; 5 μM ST247, 20 nM rapamycin pretreated, 100 μM glucose, 46 hours, FIG. 13", "result": "counteracted the survival advantage induced by rapamycin"},
      {"measurement": "viability (cell death)", "setting": "[1]; lesser concentrations of ST247 (0.5 μM, 1 μM), rapamycin-treated, no glucose", "result": "little effect"}
    ]},
    {"molecule": "Cc1ccc(NC(=O)c2ccc(CN3CCN(C)CC3)cc2)cc1Nc1nccc(-c2cccnc2)n1", "note": "[imatinib]", "values": [
      {"measurement": "S6K1 activity (phosphorylation of pS6)", "setting": "[2]", "result": "reduced S6K1 activity"}
    ]},
    {"molecule": "Cn1c(=O)n(-c2ccc(C(C)(C)C#N)cc2)c2c3cc(-c4cnc5ccccc5c4)ccc3ncc21", "note": "[BEZ235]", "values": [
      {"measurement": "Akt activation (phosphorylation at serine 473)", "setting": "[3]", "result": "prevented the increase in Akt activation"},
      {"measurement": "glucose-independent survival", "setting": "[1]; S6K1 inactivation (knockdown) plus BEZ235, low glucose, FIG. 5B", "result": "did not prevent glucose-independent survival"}
    ]},
    {"molecule": "CCOC(=O)[C@@]1(CCCCCCOc2ccc(Cl)cc2)CO1", "note": "[etomoxir]", "values": [
      {"measurement": "3H release from 3H-palmitate (FAO)", "setting": "[4]", "result": "reduced ^3H release"},
      {"measurement": "3H release from 3H-palmitate (FAO)", "setting": "[5]", "result": "reduced ^3H release"},
      {"measurement": "3H release from 3H-palmitate (FAO)", "setting": "[6]", "result": "reduced ^3H release"},
      {"measurement": "apoptosis, combination with S6K1 knockdown", "setting": "[1]; 200 μM etomoxir plus S6K1 knockdown, full glucose, approximately 48 hours, FIG. 9A", "result": "induced significant apoptosis"},
      {"measurement": "cytotoxicity as a single agent", "setting": "[1]; 200 μM etomoxir, full glucose, approximately 48 hours, FIG. 9A", "result": "mild cytotoxic effect"},
      {"measurement": "cell death in response to etomoxir, dose curve with S6K1 knockdown", "setting": "[1]; etomoxir about 200 μM to about 300 μM, full glucose, FIG. 9B", "result": "enhanced cell death"},
      {"measurement": "cell survival mediated by AICAR", "setting": "[1]; low glucose, etomoxir added, FIG. 8B", "result": "prevented cell survival"},
      {"measurement": "survival of S6K1 knockdown cells", "setting": "[1]; low glucose, presence of etomoxir, FIG. 8A, 8B", "result": "prevented the survival; also recorded: prevented cell survival"},
      {"measurement": "cytotoxicity of etomoxir in the presence of rapamycin", "setting": "[7]", "result": "enhanced cytotoxicity"}
    ]},
    {"molecule": "NC(=O)c1ncn([C@@H]2O[C@H](CO)[C@@H](O)[C@H]2O)c1N", "note": "[AICAR, 5-aminoimidazole-4-carboxamide 1-β-D-ribofuranoside]", "values": [
      {"measurement": "glucose-independent survival", "setting": "[1]; AICAR, low glucose, level similar to S6K1 knockdown, FIG. 8B", "result": "triggered glucose-independent survival"}
    ]},
    {"molecule": "CCC(=O)NC[C@H](Cc1ccc(OCCc2nc(-c3ccccc3)oc2C)cc1)N/C(C)=C\\C(=O)c1ccc(C(F)(F)F)cc1", "note": "[GW6471, N-((2S)-2-(((1Z)-1-Methyl-3-oxo-3-(4-(trifluoromethyl)phenyl)prop-1-enyl)amino)-3-(4-(2-(5-methyl-2-phenyl-1,3-oxazol-4-yl)ethoxy)phenyl)propyl)propanamide]", "values": [
      {"measurement": "viability (restoring apoptosis)", "setting": "[1]; 1 μM GW6471, 20 nM rapamycin pretreated, 50 μM glucose, 48 hours, FIG. 14", "result": "somewhat effective in restoring apoptosis"}
    ]},
    {"molecule": "CC(C)(Sc1ccc(CCN(CCCCC2CCCCC2)C(=O)NC2CCCCC2)cc1)C(=O)O", "note": "[GW7647]", "values": [
      {"measurement": "viability", "setting": "[1]; 10 μM GW7647, vehicle-control treated cells, 50 μM glucose, 48 hours, FIG. 14", "result": "undesired increase in viability"}
    ]}
  ]
}
